Assay results published in US20230391841A1, “MACROCYCLIC PEPTIDES” (Herantis Pharma OYJ, priority 2019, published 2023).
Bridge positions count the residues as written; N and C are the ends. Ends that are not written are not given here. Peptide text beside a SMILES is read from it.

Key:
[1] = target: GRP78-NBD; assay: Binding to GRP78-NBD Kd (μM)
From the text: Table printed on a drawing sheet, FIG. 5B
Head of the field: Binding to GRP78-NBD Kd (μM)
GRP78-NBD is shown in a translucent surface model along with its cartoon trace. The Cys-Cys bond in compound 12 (SEQ ID NO: 12) is shown in sticks.
The binding affinities are obtained by a microscale thermophoresis-based cell-free assay.
GSK2606414 was used to inhibit PERK signaling and KIRA6 to inhibit IRE1alpha signaling. * p<0.05, ** p<0.01, *** p<0.001, **** p<0.0001 one-way ANOVA is test with post-hoc Fisher's LSD test for pairwise comparison vs MPP+ negative control. # p<0.05, ## p<0.01, ### p<0.001, #### p<0.0001 one-way ANOVA test with post-hoc Fisher's LSD test for pairwise comparison between effect of compound alone and its combination with UPR signal inhibitor.
Where the first naming reader finds the target: head: Binding to GRP78-NBD Kd (μM)

[2] = system: dopaminergic TH-positive neurons injured with MPP+; assay: Neuroprotective effect on dopaminergic TH-positive neurons injured with MPP+ (primary mesencephalic culture); assay type: cell-based, rat
Method: Neuroprotective effects of compounds 1-26 (SEQ ID NO: 1-26) were tested in an in vitro model in which primary cultures of rat embryonic mesencephalic neurons were stressed with MPP+ , the active metabolite of neurotoxin 1-methyl-4-phenyl-1,2,3,6-tetrahydropyridine (MPTP). MPP+ kills dopaminergic (TH-positive) neurons via a variety of toxic mechanisms, including mitochondrial dysfunction, generation of peroxynitrite, oxidative stress, ER stress and induction of apoptosis.
Culture of mesencephalic neurons. Rat dopaminergic neurons were cultured as described by Visanji et al., 2008. Briefly, the midbrains obtained from 15-day-old rat embryos (Janvier, France) were dissected, and the ventral portion of the mesencephalic flexure, a region of the developing brain rich in dopaminergic neurons, was used for the cell preparations. The midbrain cells were dissociated by trypsinization for 20 min at 37° C. (solution at a final concentration of 0.05% trypsin and 0.02% EDTA). The reaction was stopped by adding Dulbecco's modified Eagle's medium (DMEM) containing DNAase I grade II (0.5 mg/mL) and 10% of fetal calf serum (FCS). Cells were then mechanically dissociated by 3 passages through a 10 ml pipette. Cells were then centrifuged at 180×g for 10 min at +4° C. on a layer of BSA (3.5%) in L15 medium. The cell pellets were re-suspended in a defined culture serum-free medium consisting of Neurobasal (Invitrogen) supplemented with B27 (2%), L-glutamine (2 mM) and 2% of PS solution and 1Ong/ml of Brain-derived neurotrophic factor (BDNF) and 1 ng/mL of Glial-Derived Neurotrophic Factor (GDNF). Viable cells were counted in a Neubauer cytometer using the trypan blue exclusion test. The cells were seeded at a density of 40 000 cells/well in 96 well-plates (pre-coated with poly-L-lysine) and maintained in a humidified incubator at 37° C. in 5% CO2/95% air atmosphere. Half of the medium was changed every 2 days with fresh medium. On 96-wells plates, only 60 wells are used. To avoid any edge effect, the first and last lines and columns were not used for culture and were filled with sterile water.
CDNF as well as linear and macrocyclic compounds […] (SEQ ID NOs: 1-26) were tested. On day 6 of culture, the compounds were dissolved in culture medium and then pre-is incubated with mesencephalic neurons for 4 hours before the MPP+ application. Four hours after the preincubation of the compounds, MPP+ was added to a final concentration of 4 pM, diluted in control medium still in presence of compounds for 48 h.
48 h after intoxication, the cells were fixed by a solution of 4% paraformaldehyde in PBS, pH 7.3 for 20 min at room temperature. The cells were washed twice in PBS, and then permeabilized and non-specific sites were blocked with a solution of PBS containing 0.1% of saponin and 1% FCS for 15 min at room temperature. Next, the cells were incubated with (a) a monoclonal antibody anti-Tyrosine Hydroxylase (TH) produced in mouse at dilution of 1:10000 and with (b) a polyclonal antibody anti-alpha-synuclein (α-syn) antibody produced in rabbit at dilution of 1:400 in PBS containing 1% FCS, 0.1% saponin, for 2 h at room temperature.
48 h after intoxication, the cell culture supernatant was removed, and the cells fixed by a solution of 4% paraformaldehyde in PBS, pH 7.3 for 20 min at room temperature. The cells were washed twice in PBS, and then permeabilized and non-specific sites were blocked with a solution of PBS containing 0.1% of saponin and 1% FCS for 15 min at room temperature. Then, the cells were incubated with a) a monoclonal Anti-Tyrosine Hydroxylase (TH) antibody produced in mouse at dilution of 1:10000 in PBS containing 1% FCS, 0.1% saponin, for 2 hours at room temperature, and b) a polyclonal anti-postsynaptic density protein-95 (PSD-95) antibody produced in rabbit at dilution of 1:200 in PBS containing 1% FCS, 0.1% saponin, for 2 h at room temperature. This antibody stains specifically synapses. […]

[3] = In vivo pharmacokinetics after intravenous administration to rats; parameters: species or system male Sprague-Dawley rats; conditions: rat, 5 mg/kg intravenous bolus, male Sprague-Dawley rats
Method: The clearance and elimination of peptides can be mediated by multiple processes in vivo, including metabolism and renal elimination.
Test compounds were intravenously (i.v.) administered to male Spraque-Dawley rats (about is six weeks old, n=3 per compound) at 5 mg/kg. Blood samples were collected from jugular vein through implanted in-dwelling catheters (250 pl blood) into labelled polypropylene tubes containing anticoagulant (heparin) at 2 min, 5 min,15 min, 30 min, 1 h, 2 h and 4 h after compound administration and held on wet ice for a maximum of 30 minutes. The blood samples were centrifuged for plasma separation (4 °C, 21100 G, 5 min). Tolbutamide 500ng/ml with 10% TFA in acetonitrile or in MeCN was used as an internal standard solution.
The standard samples were prepared into rat plasma by spiking the matrix into concentrations 2-10 000 ng/ml of the analyte, respectively, and otherwise treated as the samples. To 50 pl aliquots of sample plasma was added 200 pl of internal standard. Samples were mixed (150 rpm, 15 min) and centrifugated (3000 rpm, 15min). The analytical method was optimized for reaction monitoring chromatographic (peak shape & retention) shifts and mass spectrometric properties (ionization efficiency, MS/MS detection). Supernatants were analyzed by UHPLC-TOF mass spectrometry using electrospray ionization.

## VDLRKMRVAELKQILHSWGEECRACAE (disulfide 22-25) [Compound 1]
[1]
  Kd: 60 nM

## WGETCKGCAEKS (disulfide 5-8) [Compound 13]
[1]
  Kd: 1080 nM

## CDNF: full-length cerebral dopamine neurotrophic factor protein (rhCDNF), positive reference in the MPP+ neuroprotection model
[2]; primary rat mesencephalic culture after MPP+ injury
  number of α-Syn inclusions (alpha-synuclein aggregates) in TH-positive neurons: reducing accumulation
[2]; primary rat mesencephalic culture, 4 h preincubation, MPP+ 48 h
  protection of TH-positive neurons, their neurites and synapses from MPP+ toxicity: neuroprotective

## VDLKKLRVKELKKILDDWGETCKGCAE (disulfide 22-25) [Compound 3]
[1]
  Kd: 290 nM

## KSILDDWGETCKGCAE (disulfide 11-14) [Compound 9]
[1]
  Kd: 11000 nM

## GEECRACAEKT (disulfide 4-7) [Compound 15]
[1]
  Kd: 3210 nM

## CC[C@H](C)[C@H](NC(=O)[C@H](CCCCN)NC(=O)[C@H](CCCCN)NC(=O)[C@H](CC(C)C)NC(=O)[C@H](CCC(=O)O)NC(=O)[C@H](CCCCN)NC(=O)[C@@H](NC(=O)[C@H](CCCNC(=N)N)NC(=O)[C@H](CC(C)C)NC(=O)[C@H](CCCCN)NC(=O)[C@H](CCCCN)NC(=O)[C@H](CC(C)C)NC(=O)[C@H](CC(=O)O)NC(=O)[C@@H](N)C(C)C)C(C)C)C(=O)N[C@@H](CC(C)C)C(=O)N[C@@H](CC(=O)O)C(=O)N[C@@H](CC(=O)O)C(=O)N[C@@H](Cc1c[nH]c2ccccc12)C(=O)NCC(=O)N[C@@H](CCC(=O)O)C(=O)N[C@H](C(=O)N[C@H]1CSSC[C@@H](C(=O)N[C@@H](C)C(=O)N[C@@H](CCC(=O)O)C(=O)O)NC(=O)CNC(=O)[C@H](CCCCN)NC1=O)[C@@H](C)O [Compound 3] (H-VDLKKLRVKELKKILDDWGETCKGCAE-OH; disulfide 22-25)
[3]; in vivo
  AUC(0-inf): 4150 ng·h/mL
  MRT: 1.07 min
  Vd: 0.02 L/kg
  half-life: 4.52 min
[3]; plasma, read-out: CI
  clearance: 20.1 mL/min/kg
